Data from patent publication US20240246964A1 (Arbutus Biopharma Corporation, priority 2021, published 2024).
pEC50: −log10 of the molar value.

Biological target: human PD-L1 (Homo sapiens (Human), UniProt Q9NZQ7)
Test: T cell activation luciferase reporter cell culture system (T Cell Activation Assay)
Assay type: cell-based
Settings: luciferase reporter assay; PD-L1 aAPC/CHO-K1 cells with PD-1 effector Jurkat T cells

human PD-L1, sequence (Q9NZQ7 19-290): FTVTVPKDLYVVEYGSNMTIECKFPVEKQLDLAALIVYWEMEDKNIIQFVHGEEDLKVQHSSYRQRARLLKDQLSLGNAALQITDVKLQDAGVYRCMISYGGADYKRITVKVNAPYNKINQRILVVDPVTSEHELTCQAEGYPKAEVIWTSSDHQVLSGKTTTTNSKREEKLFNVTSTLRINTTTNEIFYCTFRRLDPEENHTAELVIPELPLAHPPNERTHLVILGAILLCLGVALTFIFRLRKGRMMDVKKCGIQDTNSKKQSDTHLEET

Row | SMILES | pEC50
1 | COCCC(=O)N1CCC(NCc2ccc(-c3cccc(-c4ccnc(-c5ccc(CN6CC7(CNC(=O)C7)C6)c(OC)c5)c4Cl)c3Cl)nc2OC)CC1 [Example 625, 2-(4-(3-Chloro-4-(2-chloro-3-(6-methoxy-5-(((1-(3-methoxypropanoyl)piperidin-4-yl)amino)methyl)pyridin-2-yl)phenyl)pyridin-2-yl)-2-methoxybenzyl)-2,6-diazaspiro[3.4]octan-7-one] | 7.68
2 | COCCC(=O)N1CCC(NCc2ccc(-c3cccc(-c4ccnc(-c5ccc(CNC[C@H](C)O)c(OC)c5)c4Cl)c3Cl)nc2OC)CC1 [Example 632, (S)-1-(4-(((6-(2-Chloro-3-(3-chloro-2-(4-(((2-hydroxypropyl)amino)methyl)-3-methoxyphenyl)pyridin-4-yl)phenyl)-2-methoxypyridin-3-yl)methyl)amino)piperidin-1-yl)-3-methoxypropan-1-one] | 7.39
3 | COc1nc(-c2ccnc(-c3cccc4c3CC[C@@H]4Nc3nc(OC)c(CNC4CCN(C(C)=O)CC4)cc3C(F)(F)F)c2Cl)ccc1CNC[C@@H]1CCC(=O)N1 [Example 633, (S)-5-((((2′-((S)-1-((5-(((1-Acetylpiperidin-4-yl)amino)methyl)-6-methoxy-3-(trifluoromethyl)pyridin-2-yl)amino)-2,3-dihydro-1H-inden-4-yl)-3′-chloro-6-methoxy-[2,4′-bipyridin]-5-yl)methyl)amino)methyl)pyrrolidin-2-one] | 6.92
4 | COc1nc(-c2ccnc(-c3cccc4c3CC[C@@H]4Nc3nc(OC)c(CNC4CCOCC4)cc3C(F)(F)F)c2Cl)ccc1CNC[C@@H]1CCC(=O)N1 [Example 634, (S)-5-((((3′-Chloro-6-methoxy-2′-((S)-1-((6-methoxy-5-(((tetrahydro-2H-pyran-4-yl)amino)methyl)-3-(trifluoromethyl)pyridin-2-yl)amino)-2,3-dihydro-1H-inden-4-yl)-[2,4′-bipyridin]-5-yl)methyl)amino)methyl)pyrrolidin-2-one] | 6.96
5 | COc1cc(-c2nccc(-c3cccc(-c4ccc(CN5CC6(C5)CN(C(C)=O)C6)c(OC)n4)c3C#N)c2Cl)ccc1CN1CC2(C1)CN(C(C)=O)C2 [Example 636, 2-(2-(4-((6-Acetyl-2,6-diazaspiro[3.3]heptan-2-yl)methyl)-3-methoxyphenyl)-3-chloropyridin-4-yl)-6-(5-((6-acetyl-2,6-diazaspiro[3.3]heptan-2-yl)methyl)-6-methoxypyridin-2-yl)benzonitrile] | 5.90
6 | COc1cc(-c2nccc(-c3cccc(NC(=O)c4ccc(CN5CC6(C5)CN(C(C)=O)C6)cn4)c3C)c2Cl)ccc1CN1CC2(C1)CN(C(C)=O)C2 [Example 649, 5-((6-Acetyl-2,6-diazaspiro[3.3]heptan-2-yl)methyl)-N-(3-(2-(4-((6-acetyl-2,6-diazaspiro[3.3]heptan-2-yl)methyl)-3-methoxyphenyl)-3-chloropyridin-4-yl)-2-methylphenyl)picolinamide] | ≤ 5.00
7 | COc1cc(-c2nccc(-c3cccc(-c4ccc(CN5CC6(CNC(=O)C6)C5)c(OC)n4)c3C#N)c2Cl)ccc1CN1CC2(CNC(=O)C2)C1 [Example 653, 2-(3-Chloro-2-(3-methoxy-4-((7-oxo-2,6-diazaspiro[3.4]octan-2-yl)methyl)phenyl)pyridin-4-yl)-6-(6-methoxy-5-((7-oxo-2,6-diazaspiro[3.4]octan-2-yl)methyl)pyridin-2-yl)benzonitrile] | 6.68
8 | COc1nc(-c2cccc(-c3ccnc(-c4cc(OC)c5nc(CNCCO)nn5c4)c3Cl)c2Cl)ccc1CNC1CCN(C(C)=O)CC1 [Example 654, 1-(4-(((6-(2-Chloro-3-(3-chloro-2-(2-(((2-hydroxyethyl)amino)methyl)-8-methoxy-[1,2,4]triazolo[1,5-a]pyridin-6-yl)pyridin-4-yl)phenyl)-2-methoxypyridin-3-yl)methyl)amino)piperidin-1-yl)ethan-1-one] | 7.08
9 | COc1nc(-c2cccc(-c3ccnc(-c4cc(OC)c5nc(CN6CC7(CNC(=O)C7)C6)nn5c4)c3Cl)c2Cl)ccc1CNC1CCN(C(C)=O)CC1 [Example 659, 2-((6-(4-(3-(5-(((1-Acetylpiperidin-4-yl)amino)methyl)-6-methoxypyridin-2-yl)-2-chlorophenyl)-3-chloropyridin-2-yl)-8-methoxy-[1,2,4]triazolo[1,5-a]pyridin-2-yl)methyl)-2,6-diazaspiro[3.4]octan-7-one] | 7.09
10 | COc1nc(-c2cccc(-c3ccnc(-c4cc5c(OC)nc(CNCCO)nn5c4)c3Cl)c2Cl)ccc1CNC1CCN(C(C)=O)CC1 [Example 661, 1-(4-(((6-(2-Chloro-3-(3-chloro-2-(2-(((2-hydroxyethyl)amino)methyl)-4-methoxypyrrolo[2,1-f][1,2,4]triazin-6-yl)pyridin-4-yl)phenyl)-2-methoxypyridin-3-yl)methyl)amino)piperidin-1-yl)ethan-1-one] | 6.09
11 | COc1nc(-c2ccnc(-c3cccc4c3CC[C@@H]4Nc3nc(OC)c(CNC[C@@H]4CCC(=O)N4)cc3C(F)(F)F)c2Cl)ccc1CNC1CCOCC1 [Example 666, (S)-5-((((6-(((S)-4-(3′-Chloro-6-methoxy-5-(((tetrahydro-2H-pyran-4-yl)amino)methyl)-[2,4′-bipyridin]-2′-yl)-2,3-dihydro-1H-inden-1-yl)amino)-2-methoxy-5-(trifluoromethyl)pyridin-3-yl)methyl)amino)methyl)pyrrolidin-2-one] | 6.94
12 | COc1cc(-c2nccc(-c3nccc(-c4ccc(CNC5CCN(C(C)=O)CC5)c(OC)n4)c3Cl)c2Cl)ccc1CNC1CCN(C(C)=O)CC1 [Example 668, 1-(4-((4-(5-(((1-acetylpiperidin-4-yl)amino)methyl)-3′,3″-dichloro-6-methoxy-[2,4′:2′,4″-terpyridin]-2″-yl)-2-methoxybenzyl)amino)piperidin-1-yl)ethan-1-one] | 6.61
13 | COc1cc(-c2nccc(-c3cccc(NC(=O)c4ccc(CN5CC6(CNC(=O)C6)C5)cn4)c3Cl)c2Cl)ccc1CN1CC2(CNC(=O)C2)C1 [Example 672, N-(2-Chloro-3-(3-chloro-2-(3-methoxy-4-((7-oxo-2,6-diazaspiro[3.4]octan-2-yl)methyl)phenyl)pyridin-4-yl)phenyl)-5-((7-oxo-2,6-diazaspiro[3.4]octan-2-yl)methyl)picolinamide] | 6.66

The remaining molecules from weak to strong by pEC50, led by results:

Row | pEC50 | SMILES
14 | 7.10 | COc1cc(-c2ncnc(-c3cccc(-c4ccc(CNC5CCOCC5)c(OC)n4)c3Cl)c2Cl)ccc1CNC1CCOCC1 [Example 626, N-((6-(2-Chloro-3-(5-chloro-6-(3-methoxy-4-(((tetrahydro-2H-pyran-4-yl)amino)methyl)phenyl)pyrimidin-4-yl)phenyl)-2-methoxypyridin-3-yl)methyl)tetrahydro-2H-pyran-4-amine]
15 | 7.18 | COc1cc(-c2nccc(-c3cccc(-c4ccc(CN5CC6(C5)CN(C(=O)CO)C6)c(OC)n4)c3Cl)c2Cl)ccc1CN1CC2(C1)CN(C(=O)CO)C2 [Example 667, 1-(6-((6-(2-Chloro-3-(3-chloro-2-(4-((6-(2-hydroxyacetyl)-2,6-diazaspiro[3.3]heptan-2-yl)methyl)-3-methoxyphenyl)pyridin-4-yl)phenyl)-2-methoxypyridin-3-yl)methyl)-2,6-diazaspiro[3.3]heptan-2-yl)-2-hydroxyethan-1-one]
16 | 7.18 | COc1cc(-c2nccc(-c3cccc(NC(=O)c4ccc(CNC[C@@H]5CCC(=O)N5)cn4)c3C)c2Cl)ccc1CNC[C@@H]1CCC(=O)N1 [Example 647, N-(3-(3-Chloro-2-(3-methoxy-4-(((((S)-5-oxopyrrolidin-2-yl)methyl)amino)methyl)phenyl)pyridin-4-yl)-2-methylphenyl)-5-(((((S)-5-oxopyrrolidin-2-yl)methyl)amino)methyl)picolinamide]
17 | 7.21 | COc1cc(-c2nccc(-c3cccc(-c4ccc(CN5CC6(CCN(CCO)C6)C5)c(OC)n4)c3Cl)c2Cl)ccc1CN1CC2(CCN(CCO)C2)C1 [Example 670, 2-(2-((6-(2-Chloro-3-(3-chloro-2-(4-((6-(2-hydroxyethyl)-2,6-diazaspiro [3.4]octan-2-yl)methyl)-3-methoxyphenyl)pyridin-4-yl)phenyl)-2-methoxypyridin-3-yl)methyl)-2,6-diazaspiro[3.4]octan-6-yl)ethan-1-ol]
18 | 7.40 | COc1nc(-c2cccc(-c3ccnc(-c4ccc(CN5CC6(C5)CN(C(C)=O)C6)c(OC(F)F)c4)c3Cl)c2Cl)ccc1CNC1CCOCC1 [Example 663, 1-(6-(4-(3-Chloro-4-(2-chloro-3-(6-methoxy-5-(((tetrahydro-2H-pyran-4-yl)amino)methyl)pyridin-2-yl)phenyl)pyridin-2-yl)-2-(difluoromethoxy)benzyl)-2,6-diazaspiro[3.3]heptan-2-yl)ethan-1-one]
19 | 7.42 | COCCC(=O)N1CCC(NCc2ccc(-c3cccc(-c4ccnc(-c5ccc(CN6CC7(C6)CN(C(C)=O)C7)c(OC)c5)c4Cl)c3Cl)nc2OC)CC1 [Example 631, 1-(4-(((6-(3-(2-(4-((6-Acetyl-2,6-diazaspiro[3.3]heptan-2-yl)methyl)-3-methoxyphenyl)-3-chloropyridin-4-yl)-2-chlorophenyl)-2-methoxypyridin-3-yl)methyl)amino)piperidin-1-yl)-3-methoxypropan-1-one]
20 | 7.49 | COc1nc(-c2cccc(-c3ccnc(-c4ccc(CN5CC6(C5)CN(C(C)=O)C6)c(OC(F)F)c4)c3Cl)c2Cl)ccc1CNC1CCN(C(C)=O)CC1 [Example 664, 1-(4-(((6-(3-(2-(4-((6-Acetyl-2,6-diazaspiro[3.3]heptan-2-yl)methyl)-3-(difluoromethoxy)phenyl)-3-chloropyridin-4-yl)-2-chlorophenyl)-2-methoxypyridin-3-yl)methyl)amino)piperidin-1-yl)ethan-1-one]
21 | 7.53 | COc1cc(-c2nccc(-c3cccc(-c4ccc(CN5CC6(CCN(C(C)=O)C6)C5)c(OC)n4)c3Cl)c2Cl)ccc1CN1CC2(CCN(C(C)=O)C2)C1 [Example 671, 1-(2-((6-(3-(2-(4-((6-Acetyl-2,6-diazaspiro[3.4]octan-2-yl)methyl)-3-methoxyphenyl)-3-chloropyridin-4-yl)-2-chlorophenyl)-2-methoxypyridin-3-yl)methyl)-2,6-diazaspiro[3.4]octan-6-yl)ethan-1-one]
